Among the data in PubChem BioAssay AID732 (Emory University Molecular Libraries Screening Center, 2007) are vessel count % control values, retold here.

SMILES strings stand for the structures. Several values for one entry are separate records, joined by “and”; a condition that tells them apart may be missing. Equal entries are not always repeated. Activity calls are given as the source filed them. The rule behind the calls is not given here.

In the assay the test system is in vivo angiogenesis, blood vessel count. Nature of the assay: angiogenesis inhibition in living animals, in vivo study, HTS (AID 732).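 Note: zebrafish embryos dosed at one day post fertilization; 0% = reference inhibitor and 100% = plate mean.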 To be noted: active compounds read low;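 tested at 30 µM in the well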.
For `CN(C)CCC(c1ccc(Br)cc1)c1ccccn1` (stereo not given), the vessel count % control is 92.3% (inactive).

For `Clc1ccc(C(c2ccc(Cl)cc2)n2cc[n+](CC(OCc3ccc(Cl)cc3Cl)c3ccc(Cl)cc3Cl)c2)cc1` (stereo not given), the vessel count % control is 0% (inactive). The same measure for `C[C@H](CS)C(=O)N1CCC[C@H]1C(=O)O`: 100% (inactive).

Consider `NCCCCNCCCN`, for which the vessel count % control is 122% (inactive).

As to `NC(N)=NC(=O)c1nc(Cl)c(N2CCCCCC2)nc1N`, the vessel count % control was 119% (inactive).

`C[C@]12C=CC(=O)C=C1CC[C@@H]1C2=CC[C@]2(C)[C@@H](C(=O)CN3CCN(c4cc(N5CCCC5)nc(N5CCCC5)n4)CC3)CC[C@@H]12`: the vessel count % control was 101% (inactive). Then `OCC1O[C@H](O)C(Cl)C(O)C1O` (stereo not given in full), with 100% (inactive); and `CN(C)c1cc2c(Nc3ccc4c(cnn4Cc4ccccc4)c3)ncnc2cn1`, with 84.7% (inactive). `COc1ccc2cc([C@H](C)C(=O)O)ccc2c1`: the vessel count % control was 101% (inactive). As for `Oc1ccc2c3c1O[C@H]1c4[nH]c5c(c4C[C@@]4(O)[C@@H](C2)N(CC2CC2)CC[C@]314)C[C@@]1(O)[C@H]2Cc3ccc(O)c4c3[C@@]1(CCN2CC1CC1)[C@H]5O4`, the vessel count % control is 81.2% (inactive). Consider `CC1(C)CCC=[N+]1[O-]`, for which the vessel count % control was 85.7% (inactive).

With `O=C1NCN(c2ccccc2)C12CCN(CC1COc3ccccc3O1)CC2` (stereo not given), the vessel count % control is 94.6% (inactive). Then `O=C1CCC(N2C(=O)c3ccccc3C2=O)C(=O)N1` (stereo not given), with 108% (inactive); and `c1ccc(C2CN3CCSC3=N2)cc1` (stereo not given), with 95.6% (inactive); and `C[C@@H]1O[C@H](C[N+](C)(C)C)C[C@H]1O`, with 104% (inactive). For the molecule `COc1cc(CNC(=O)CCCCCCC(C)C)ccc1O`, the vessel count % control was 128% (inactive). The same measure for `CCN(Cc1ccncc1)C(=O)C(CO)c1ccccc1` (stereo not given): 114% (inactive); for `CNc1ncnc2c1ncn2[C@H]1C[C@H](OP(=O)(O)O)[C@@H](COP(=O)(O)O)O1`: 93.2% (inactive); for `CNCC(O)c1ccc(O)c(O)c1` (stereo not given): 123% (inactive). Take `CC(=O)/C(C)=N/O`: the vessel count % control is 104% (inactive). The same measure for `COc1ccc2c(c1)c(CC(=O)O)c(C)n2Cc1ccc(F)cc1`: 106% (inactive); for `Nc1ncnc2c1nc(Sc1ccc(Cl)cc1)n2C1OC2COP(=O)(O)O[C@@H]2[C@@H]1O` (stereo not given in full): 88.9% (inactive). Then `CNc1ccc2oc(C[C@H]3O[C@@]4(CC[C@H]3C)O[C@H]([C@H](C)C(=O)c3ccc[nH]3)[C@H](C)C[C@H]4C)nc2c1C(=O)O`, with 0% (inactive). Turning to `NC(Cc1cc(O)c(O)cc1O)C(=O)O` (stereo not given), the vessel count % control was 88.2% (inactive). The same measure for `CN1C2CCC1CC(OC(c1ccccc1)c1ccccc1N)C2` (stereo not given): 91.2% (inactive); for `c1ccc(C2CC2)c(OCC2=NCCN2)c1`: 104% (inactive). `Cn1cc(C2=C(c3ccc(Cl)cc3Cl)C(=O)NC2=O)c2ccccc21`: the vessel count % control was 0% (inactive). The same measure for `CC(C)(C)NCC(O)c1ccc(O)c(CO)c1` (stereo not given): 122% (inactive) and 102% (inactive); for `c1ccc2c(c1)OCC(C1=NCCN1)O2` (stereo not given): 146% (inactive).

For the molecule `CCCCCCCCCCC/C=C\C(C)(C)/C=C\CCCC(=O)O`, the vessel count % control was 79.5% (inactive). Then `c1ccc2cc(CC3=NCCN3)ccc2c1`, with 120% (inactive); and `CC(C)(Oc1ccc(C2CC2(Cl)Cl)cc1)C(=O)O` (stereo not given), with 96.9% (inactive). The same measure for `NC(Cc1cccc(-c2ccccc2CP(=O)(O)O)c1)C(=O)O` (stereo not given): 106% (inactive); for `CSc1ccc(C(=O)c2[nH]c(=O)[nH]c2C)cc1`: 76.7% (inactive); for `CC(C)(C)c1cc(C=C(C#N)C#N)cc(C(C)(C)C)c1O`: 0% (inactive). Then `CC(C)C[C@H](NC(=O)C1OC1C(=O)O)C(=O)NCCCCN=C(N)N` (stereo not given in full), with 108% (inactive). For `O=C(/C=C/c1ccc(O)c(O)c1)OCCc1ccccc1`, the vessel count % control was 0% (inactive). Then `O=C1Nc2ccc(I)cc2/C1=C/c1cc(Br)c(O)c(Br)c1`, with 69.8% (inactive).

As for `Cc1cccc(C)c1NC1=NCCCS1`, the vessel count % control was 114% (inactive).

For the molecule `NS(=O)(=O)c1cc2c(cc1Cl)NC(C1CC3C=CC1C3)NS2(=O)=O` (stereo not given), the vessel count % control was 107% (inactive).

Take `CC[C@@H]1Cc2cc(O)ccc2C2=C1c1ccc(O)cc1C[C@H]2CC`: the vessel count % control was 99.8% (inactive). Then `CCn1cc(C(=O)O)c(=O)c2cc(F)c(N3CCNC(C)C3)c(F)c21` (stereo not given), with 89.7% (inactive); and `N=C(N)c1ccc(OCCCCCOc2ccc(C(=N)N)cc2)cc1` (tested in a mixture with another compound), with 99.1% (inactive); and `COCC(=O)O[C@]1(CCN(C)CCCc2nc3ccccc3[nH]2)CCc2cc(F)ccc2[C@@H]1C(C)C`, with 90.9% (inactive).

Regarding `O=C(O)[C@@H]1CCN1`, the vessel count % control is 84.3% (inactive).

For the molecule `Cc1cc(C(C)(C)C)cc(C)c1CC1=NCCN1`, the vessel count % control was 101% (inactive). With `C[C@@H]1C(=O)NC2=Nc3cccc(Cl)c3CN21`, the vessel count % control was 119% (inactive). Then `CC1Cc2cc3c(cc2C(c2ccc(N)cc2)=NN1)OCO3` (stereo not given), with 105% (inactive); and `O=C(O)[C@@H]1C[C@@H](C(=O)O)N1`, with 99.6% (inactive). Then `NC(=O)c1ccccc1`, with 92% (inactive); and `CO[C@@]1(NC(=O)CSCC#N)C(=O)N2C(C(=O)O)=C(CSc3nnnn3C)CS[C@@H]21`, with 122% (inactive).

In the case of `O=c1c2ccccc2[se]n1-c1ccccc1`, the vessel count % control was 94.8% (inactive). As for `CO/N=C(\C(=O)N[C@@H]1C(=O)N2C(C(=O)O)=C(COC(C)=O)CS[C@H]12)c1csc(N)n1` (stereo in doubt), the vessel count % control is 104% (inactive). Then `CCCN1CCc2cccc3c2[C@H]1Cc1ccc(O)c(O)c1-3`, with 89.9% (inactive); and `O=c1[nH]c2ccccc2n1C1CCN(CCCC(c2ccc(F)cc2)c2ccc(F)cc2)CC1`, with 52.9% (inactive). The same measure for `C/C=C(/C)C(=O)O[C@H]1C(C)=C2[C@H]([C@@H]1OC(=O)CCCCCCC)[C@@](C)(OC(C)=O)C[C@H](OC(=O)CCC)[C@@]1(O)[C@H]2OC(=O)[C@@]1(C)O`: 0% (inactive). The same measure for `NC(=NCc1ccc(Cl)c(Cl)c1)NC(=O)c1nc(Cl)c(N)nc1N`: 108% (inactive); for `CC1COc2c(N3CCN(C)CC3)c(F)cc3c(=O)c(C(=O)O)cn1c23` (stereo not given): 74.9% (inactive); for `C[N+](C)(C)CCO`: 96.9% (inactive). On to `Clc1ccc(N2CC3CCC(C2)N3)nn1`, for which the vessel count % control is 106% (inactive). As to `CC1(NCC(O)COc2cccc3[nH]ccc23)CCC(C(C)(C)NC(=O)CBr)CC1` (stereo not given), the vessel count % control was 124% (inactive). The same measure for `NC(N)=N[C@@H](CCC(=O)O)C(=O)O`: 99.2% (inactive).

In the case of `CC1=C[C@@H]2c3cccc4[nH]cc(c34)C[C@H]2N(C)C1`, the vessel count % control is 81.3% (inactive). Then `NC(CCP(=O)(O)O)C(=O)O` (stereo not given), with 88.9% (inactive); and `CC(C)NCC(O)COc1ccc(CC(N)=O)cc1` (stereo not given), with 102% (inactive).

For `COc1cc2nc(N3CCN(C(=O)OCc4ccccc4)C(C(=O)NC(C)(C)C)C3)nc(N)c2cc1OC` (stereo not given), the vessel count % control is 104% (inactive). For the molecule `CC(C)(C)c1ccc(S(=O)(=O)/C=C/C#N)cc1`, the vessel count % control was 0% (inactive).

As for `CC(C)(C)NCC(O)COc1cccc2[nH]c(=O)[nH]c12` (stereo not given), the vessel count % control was 103% (inactive). With `Cc1o[nH]c(=O)c1CC(N)C(=O)O` (stereo not given), the vessel count % control was 104% (inactive).

As for `Nc1ncnc2c1nc(Br)n2C1OC2COP(=O)(O)O[C@@H]2C1O` (stereo not given in full), the vessel count % control was 101% (inactive).

As to `Cc1nc(-c2ccc(-c3ccc(C(=O)N4CCc5cc6c(cc54)C4(CCN(C)CC4)CO6)cc3)c(C)c2)no1`, the vessel count % control is 108% (inactive). Then `CCN(CC)CCCC(C)Nc1c2ccc(Cl)cc2nc2ccc(OC)cc12` (stereo not given), with 0% (inactive); and `C=CC(N)CCC(=O)O` (stereo not given), with 85.7% (inactive); and `CC(N)(C(=O)O)c1ccc(C(=O)O)cc1` (stereo not given), with 93.5% (inactive).

For `CNCC[C@H](Oc1ccc(C(F)(F)F)cc1)c1ccccc1`, the vessel count % control is 98.4% (inactive). The same measure for `Cc1cn([C@H]2C=C[C@@H](CO)O2)c(=O)[nH]c1=O`: 99.1% (inactive). Then `CC(CCc1ccc(O)cc1)NCCc1ccc(O)c(O)c1` (stereo not given), with 92.8% (inactive). The same measure for `CC(N)=NCCCC[C@@H](N)C(=O)O`: 86.6% (inactive); for `c1cnc(N2CCN(Cc3ccc4c(c3)OCO4)CC2)nc1`: 106% (inactive); for `Cc1cn[nH]c1`: 87.3% (inactive). In the case of `O=C1C(SCCO)=C(SCCO)C(=O)c2ccccc21`, the vessel count % control is 0% (inactive).

In the case of `CCCCC/C=C\C/C=C\C/C=C\C/C=C\CCCC(=O)NCC(=O)O`, the vessel count % control is 83.7% (inactive).

As for `CCSC(N)=Nc1ccc(C(F)(F)F)cc1`, the vessel count % control is 87.5% (inactive). Take `O=C(c1ccc(F)cc1)C1CCN(CCn2c(=O)[nH]c3ccccc3c2=O)CC1`: the vessel count % control is 103% (inactive). Then `C[N+](C)(CCCCCC[N+](C)(C)CCCN1C(=O)c2cccc3cccc(c23)C1=O)CCCN1C(=O)c2cccc3cccc(c23)C1=O`, with 115% (inactive).
